± gives the expanded uncertainty stated by the source.
Experiment: refractive index (Na D-line) (dimensionless); xn = mol fraction of the nth substance listed
Conditions: 100 kPa, Liquid, Standard Abbe refractometry

CCC(C)=O [butanone] + CCCCO
refractive index
Conditions	x1 = 0.0997	x1 = 0.1999	x1 = 0.3003	x1 = 0.4008	x1 = 0.5003	x1 = 0.6001	x1 = 0.6992	x1 = 0.7991	x1 = 0.899	x1 = 1
288.15 K	1.39943 ± 0.00036	1.3975 ± 0.00037	1.39558 ± 0.00037	1.39362 ± 0.00037	1.39169 ± 0.00038	1.38971 ± 0.00038	1.38771 ± 0.00039	1.38569 ± 0.00039	1.38364 ± 0.0004	1.38153 ± 0.0004
293.15 K	1.39733 ± 0.00036	1.39533 ± 0.00037	1.39333 ± 0.00037	1.39131 ± 0.00037	1.38933 ± 0.00038	1.38729 ± 0.00038	1.38525 ± 0.00039	1.38316 ± 0.00039	1.38108 ± 0.0004	1.37892 ± 0.0004
298.15 K	1.39524 ± 0.00036	1.39315 ± 0.00037	1.39107 ± 0.00037	1.38899 ± 0.00037	1.38696 ± 0.00038	1.38486 ± 0.00038	1.38276 ± 0.00039	1.38062 ± 0.00039	1.37849 ± 0.0004	1.37631 ± 0.0004
303.15 K	1.3931 ± 0.00036	1.39095 ± 0.00037	1.38882 ± 0.00037	1.38669 ± 0.00037	1.38457 ± 0.00038	1.38241 ± 0.00038	1.38025 ± 0.00039	1.37807 ± 0.00039	1.37589 ± 0.0004	1.37366 ± 0.0004
308.15 K	1.39096 ± 0.00036	1.38872 ± 0.00037	1.38651 ± 0.00037	1.38433 ± 0.00037	1.38215 ± 0.00038	1.37995 ± 0.00038	1.37775 ± 0.00039	1.37551 ± 0.00039	1.3733 ± 0.0004	1.37102 ± 0.0004
313.15 K	1.38881 ± 0.00036	1.38649 ± 0.00037	1.38421 ± 0.00037	1.38196 ± 0.00037	1.37973 ± 0.00038	1.37748 ± 0.00038	1.37522 ± 0.00039	1.37293 ± 0.00039	1.37065 ± 0.0004	1.36834 ± 0.0004
318.15 K	1.38664 ± 0.00036	1.38427 ± 0.00037	1.38192 ± 0.00037	1.37958 ± 0.00037	1.37728 ± 0.00038	1.37496 ± 0.00038	1.37265 ± 0.00039	1.37031 ± 0.00039	1.36798 ± 0.0004	1.36565 ± 0.0004
323.15 K	1.38447 ± 0.00036	1.38203 ± 0.00037	1.37959 ± 0.00037	1.37718 ± 0.00037	1.3748 ± 0.00038	1.37244 ± 0.00038	1.37008 ± 0.00039	1.36769 ± 0.00039	1.36531 ± 0.0004	1.36294 ± 0.0004

— the NIST ThermoML archive (doi:10.1021/je5007696)
